In assay [1] the test system is whole cell wild-type P. mirabilis. As to the kind of experiment: Inhibition of conversion of choline to TMA by whole cell wild-type P. mirabilis (EXAMPLE 5). The format is cell-based. The note with it: Proteus mirabilis, read-out: EC50 (mol/L) whole cell wild-type P. mirabilis. The procedure: (§1) Ability of compounds to inhibit the conversion of choline to TMA in cell lysates or whole cells were determined using methods as described in Wang, Z, Roberts, A B, Buffa J A, et al. (2015) Non-lethal inhibition of gut microbial trimethylamine production for the treatment of atherosclerosis, Cell 163: 1585-1595. Briefly, efficacy was measured as IC50 (nM) by inhibition of conversion of choline to TMA metabolized by recombinant P. mirabilis Cut C/D lysate; recombinant D. alaskensis Cut C/D lysate, or whole cell wild-type P. mirabilis.

In assay [2] the target is recombinant P. mirabilis Cut C/D lysate (Proteus mirabilis, UniProt B4EYG1). Kind of assay: Inhibition of conversion of choline to TMA by recombinant P. mirabilis Cut C/D lysate (EXAMPLE 5). The format is biochemical. The procedure: as §1
Sequence of recombinant P. mirabilis Cut C/D lysate (B4EYG1 entry or part of it): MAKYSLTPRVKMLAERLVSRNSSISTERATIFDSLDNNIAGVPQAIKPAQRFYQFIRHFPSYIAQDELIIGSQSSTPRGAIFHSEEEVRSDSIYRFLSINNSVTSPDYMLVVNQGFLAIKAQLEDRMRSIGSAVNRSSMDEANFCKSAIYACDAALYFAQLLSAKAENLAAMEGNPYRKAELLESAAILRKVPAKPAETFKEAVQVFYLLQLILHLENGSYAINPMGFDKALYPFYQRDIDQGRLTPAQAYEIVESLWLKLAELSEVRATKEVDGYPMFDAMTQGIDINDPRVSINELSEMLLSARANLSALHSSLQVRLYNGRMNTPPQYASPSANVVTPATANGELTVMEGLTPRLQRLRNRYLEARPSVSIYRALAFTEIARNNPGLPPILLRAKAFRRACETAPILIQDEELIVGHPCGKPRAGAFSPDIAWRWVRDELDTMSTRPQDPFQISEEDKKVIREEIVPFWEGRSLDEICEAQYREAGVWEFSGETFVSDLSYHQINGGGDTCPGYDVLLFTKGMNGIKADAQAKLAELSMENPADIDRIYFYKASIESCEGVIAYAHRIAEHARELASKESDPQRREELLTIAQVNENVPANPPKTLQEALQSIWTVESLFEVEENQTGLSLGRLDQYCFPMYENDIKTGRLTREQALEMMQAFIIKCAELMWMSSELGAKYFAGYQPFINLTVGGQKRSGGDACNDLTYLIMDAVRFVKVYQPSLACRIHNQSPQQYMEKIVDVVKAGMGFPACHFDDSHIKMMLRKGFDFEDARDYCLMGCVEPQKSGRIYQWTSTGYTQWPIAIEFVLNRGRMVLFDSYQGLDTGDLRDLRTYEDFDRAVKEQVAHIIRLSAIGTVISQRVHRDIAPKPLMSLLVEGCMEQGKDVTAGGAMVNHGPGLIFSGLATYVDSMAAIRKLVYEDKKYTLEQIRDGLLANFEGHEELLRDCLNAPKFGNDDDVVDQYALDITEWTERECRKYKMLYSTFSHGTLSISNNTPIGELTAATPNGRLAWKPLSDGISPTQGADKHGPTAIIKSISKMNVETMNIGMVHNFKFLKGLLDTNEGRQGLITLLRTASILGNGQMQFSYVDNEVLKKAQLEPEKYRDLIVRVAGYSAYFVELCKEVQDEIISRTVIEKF
Sequence of recombinant P. mirabilis Cut C/D lysate (B4EYG0 entry or part of it, further chain): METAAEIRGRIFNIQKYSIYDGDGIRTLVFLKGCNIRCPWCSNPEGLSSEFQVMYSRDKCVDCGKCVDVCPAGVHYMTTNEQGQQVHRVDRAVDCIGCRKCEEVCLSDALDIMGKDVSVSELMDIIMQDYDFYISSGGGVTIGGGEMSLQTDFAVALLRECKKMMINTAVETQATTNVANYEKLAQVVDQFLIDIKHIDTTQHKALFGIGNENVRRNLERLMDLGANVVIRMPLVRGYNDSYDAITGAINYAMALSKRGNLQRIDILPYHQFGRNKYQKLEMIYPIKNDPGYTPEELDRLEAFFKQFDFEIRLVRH
The target of assay [3] is T1, recombinant D. alaskensis Cut C/D lysate (Oleidesulfovibrio alaskensis, UniProt Q30W70).
T1 construct: made in house
T1 sequence (Q30W70 whole entry): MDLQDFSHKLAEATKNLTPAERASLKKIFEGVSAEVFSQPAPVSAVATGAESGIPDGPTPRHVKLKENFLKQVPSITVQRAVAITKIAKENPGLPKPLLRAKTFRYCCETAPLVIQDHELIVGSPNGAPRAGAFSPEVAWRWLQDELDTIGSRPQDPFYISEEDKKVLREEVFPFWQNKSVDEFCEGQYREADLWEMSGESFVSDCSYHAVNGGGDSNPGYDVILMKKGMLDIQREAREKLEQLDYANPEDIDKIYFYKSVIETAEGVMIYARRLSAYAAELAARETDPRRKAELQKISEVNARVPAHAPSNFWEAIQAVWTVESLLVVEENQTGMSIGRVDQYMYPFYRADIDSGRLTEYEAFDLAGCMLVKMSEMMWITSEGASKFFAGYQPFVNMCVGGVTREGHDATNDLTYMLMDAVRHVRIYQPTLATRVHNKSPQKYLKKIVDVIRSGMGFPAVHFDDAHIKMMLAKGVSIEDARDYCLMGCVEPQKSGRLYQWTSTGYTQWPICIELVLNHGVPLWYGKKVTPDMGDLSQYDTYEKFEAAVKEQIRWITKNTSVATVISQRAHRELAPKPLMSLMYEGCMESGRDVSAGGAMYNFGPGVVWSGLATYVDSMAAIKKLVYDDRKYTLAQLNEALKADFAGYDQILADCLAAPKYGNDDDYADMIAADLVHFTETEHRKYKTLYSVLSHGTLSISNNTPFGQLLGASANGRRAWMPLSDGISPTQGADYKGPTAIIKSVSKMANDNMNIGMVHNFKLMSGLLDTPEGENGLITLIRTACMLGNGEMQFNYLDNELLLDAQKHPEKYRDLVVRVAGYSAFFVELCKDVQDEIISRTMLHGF
Kind of assay: Inhibition of conversion of choline to TMA by recombinant D. alaskensis Cut C/D lysate (EXAMPLE 5). The format is biochemical. The procedure: as §1

The test system of the next assay is plasma TMAO. Kind of assay: Preclinical screening method, plasma TMAO in mice on 1% choline diet (EXAMPLE 4). The format is in vivo, mice (C57bl/6). The settings on record: 1% Choline Added diet, oral gavage 310 mg/kg/day, 3 days, blood 20 hours post gavage. The procedure:
Starting at day 0, mice (C57bl/6, ˜19 g, 10 wk of age; n=5/group) were maintained in accordance with the NIH guidelines in a 12:12 hr light:dark cycle and provided with 1% Choline Added diet (Envigo custom formulation prepared, similar to Teklad Global Rodent Diet 2018) ad libitum. Concurrent with introduction of the diet, mice were gavaged once daily orally using a 1.5″ 22G ball-tip curved feeding needle to administer compound in 200 μl or less of water at one or multiple of the dose 0, 1.0, 3.1, 10, 31, 100 or 310 mg/kg/day. Urine was collected once daily in the morning. Animals were restrained by hand and bladder was expressed by gentle palpation of the pelvic region. […]
For measurement of TMA in plasma, samples were acidified (10 mM HCl final) prior to storage at −80° C. TMAO and TMA and their d9-isotopologues were quantified using stable isotope dilution HPLC with on-line electrospray ionization tandem mass spectrometry ([…]) methods as described in (Wang Z, Klipfell E, Bennett B J, et al. (2011) Gut flora metabolism of phosphatidylcholine promotes cardiovascular disease. Nature 472:57-63) using d4(1,1,2,2)-choline, d3(methyl)-TMAO, and d3(methyl)-TMA as internal standards. […]

Assay [4] deals with conversion of choline to TMA. Kind of assay: Rapid preclinical method, d9-choline challenge in mice (EXAMPLE 6). The format is in vivo. The note with it: oral gavage with 2 mg d9-Choline, plasma at 3 hr. The procedure: Challenge: C57bl/6 female mice (8 wk of age ˜20 g BW) were maintained in accordance with the NIH guidelines in a 12:12 hr light:dark cycle on normal chow diet were placed in a clean cage without food ˜1 hr prior to gavage. […] Food was returned after a 2 hr fast (1 hr after gavage administration). Blood (30 μL) was collected into a heparinized capillary tube 2, 3 and 4 hours after gavage. Blood was kept at 4° C., then spun using a centrifuge (5 min in centrifuge designed to capillary tubes) to separate plasma and hematocrit within 4 hours after collection. Plasma samples were stored at −80° C. Concentration of d9 Choline, d9TMA and d9TMAO was measured by LC-MS/MS.
Flora Normalization: Twenty four hours post-gavage mice were placed in a clean cage and fecal material from conventional mice was spread in all the cages.

In assay [5] the test system is human fecal polymicrobial community. Kind of assay: Human fecal polymicrobial incubation with d9-choline, TMA inhibition (EXAMPLE 3). Format: cell-based. The note with it: human fecal slurry 0.2% (w/v), 50 μM d9-choline chloride, 20 hours at 37° C., anaerobic; read-out: TMA Inhibition (IC50, mol/L). The procedure:
Human fecal polymicrobial incubation with deuterium labeled choline compound screening method, including cell viability assay. All materials were pre-reduced in an anaerobic chamber for 24 hours before using in the experiments and experimental procedures were performed under anaerobic conditions (chamber purged with 85% nitrogen, 5% hydrogen, 10% carbon dioxide).
Human fecal samples were collected from a healthy volunteer with no chronic illnesses, blood borne diseases or active infections. The volunteer had not received antibiotics within two months prior to donation and provided written informed consent. Samples were diluted to make a 20% (w/v) fecal slurry by resuspension of the feces in a media containing 3% (w/v) tryptic soy broth, 1% (w/v) trehalose, pH 7.3. The fecal slurry was homogenized and filtered by hand using a stomacher bag with an integrated 170 μm membrane. DMSO (5% (w/v)) was added to the filtered slurry and aliquots were stored in cryogenic vials at −80° C. until use. Frozen fecal slurries were diluted to 0.2% (w/v) with M9 media (Na2HPO4 (6 g/L), KH2PO4 (3 g/L), NaCl (0.5 g/L) with addition of 0.1 mM CaCl2 and 1 mM MgSO4) and dispensed (1 mL) into deep well 96-well plates. Diluted fecal slurries containing 50 μM d9-choline chloride and compounds in doses ranging from 500 μM to 3.81 nM were sealed and incubated at 37° C. with shaking. After 20 hours, an aliquot of the fecal polymicrobial community was analyzed for viability using PrestoBlue cell viability reagent (Thermo Fisher Scientific, USA) as described below. The reaction plates were subsequently centrifuged (4000×g at 4° C. for 12 min) to pellet fecal material and 150 μl aliquots were transferred and quenched with addition of formic acid to 1% (v/v). All fecal processing and polymicrobial assay steps were performed in an anaerobic environment. The products were determined by LC/MS/MS and IC50 values were calculated as described previously for detection and analysis of TMA and d9-TMA in EXAMPLE 2.

Assay [6] has as its system Proteus mirabilis 29906 (Pm) lysate. Kind of assay: Inhibition of formation of TMA from choline in Proteus mirabilis lysate (EXAMPLE 2). The format is biochemical. The note with it: Proteus mirabilis 29906 lysate, d9-choline chloride substrate, 37° C. for two hours; read-out: TMA Inhibition (IC50, mol/L).

Where two headings read alike, the source gives them in different places.

Take `C#CC[N+](C)(C)C1CC1` [ID 3, N,N-dimethyl-N-(prop-2-yn-1-yl)cyclopropanaminium bromide]: in assay [1] (inhibition of conversion of choline to TMA), the EC50 is 0.038 µM. Also, the IC50 in assay [2] worked out at 0.15 µM; in assay [3] it was 0.11 µM. In the assay with plasma TMAO, the “Remaining plasma TMAO as a percentage of plasma TMAO in same day vehicle control (% of control remaining)” value turned out to be 23%. For the same compound, the “Calculated EC50 (mg/kg) compared to Vehicle Control” value in assay [4] is 0.04 mg/kg.

As to `C[N+](C)(CCO)C1CC1` [compound 1], the figures for the IC50 in assay [5] and in assay [6] were 135 µM and 0.000251 µM, respectively.

Turning to `CCOC(=O)CCCCC[N+](C)(C)C1CC1` [compound 9, N-(6-ethoxy-6-oxohexyl)-N,N-dimethylcyclopropanaminium], the IC50 in assay [6] is 945 µM.

As for `C[N+](C)(CF)C1CC1` [N-(fluoromethyl)-N,N-dimethylcyclopropanaminium iodide], the IC50 is 60 µM in assay [6], 21 µM in assay [2] and 45 µM in assay [3].

Take `C#CC[N+]1(C2CC2)CCOCC1` [compound 10, 4-cyclopropyl-4-(prop-2-yn-1-yl)morpholin-4-ium]: the IC50 in assay [6] was 1.28 µM.

For the compound `C=CC[N+](C)(C)C1CC1` [compound 2, N-allyl-N,N-dimethylcyclopropanaminium], the IC50 in assay [5] came out at 53.2 µM; in assay [6] it was 0.00398 µM.

`C[N+](C)(CC(N)=O)C1CC1` [compound 8, N-(2-amino-2-oxoethyl)-N,N-dimethylcyclopropanaminium]: in assay [6], the IC50 was 202 µM.

As to `C[N+](C)(CCO)C1CC1` [ID 1, Cyclopropane-dimethyl-ethanolamine iodide], in assay [1], the EC50 was 0.0481 µM. In addition, the figures for the IC50 in assay [2] and in assay [3] were 0.0062 µM and 0.087 µM, respectively. For the same compound, the “Remaining plasma TMAO as a percentage of plasma TMAO in same day vehicle control (% of control remaining)” value in the assay with plasma TMAO is 5%. In assay [4], the “Calculated EC50 (mg/kg) compared to Vehicle Control” value was 0.75 mg/kg.

As for `COC(=O)C(=O)C[N+](C)(C)C1CC1` [compound 6, N-(3-methoxy-2,3-dioxopropyl)-N,N-dimethylcyclopropanaminium], the IC50 in assay [6] is 4.65 µM.

Consider `C#CC[N+](C)(C)C1CC1` [compound 3, N,N-dimethyl-N-(prop-2-yn-1-yl)cyclopropanaminium], for which the IC50 in assay [5] amounted to 0.428 µM; in assay [6], 0.0331 µM.

Turning to `COC(=O)C[N+](C)(C)C1CC1` [compound 4, N-(2-methoxy-2-oxoethyl)-N,N-dimethylcyclopropanaminium], the values for the IC50 in assay [5] and in assay [6] were 134 µM and 89.2 µM, respectively.

Regarding `C=C(C[N+](C)(C)C1CC1)C(=O)OC` [compound 5, N-(2-(methoxycarbonyl)allyl)-N,N-dimethylcyclopropanaminium], the IC50 in assay [5] stood at 166 µM; in assay [6], 50.4 µM.
